In ChEMBL document CHEMBL6121054, “Discovery of Metabolic Reprogramming 2-Quinolones as Effective Antimicrobials for MRSA-Infected Wound Therapy” (J Med Chem, 2025):
Activity calls are given as the source filed them. The rule behind the calls is not given here.

Columns and labels:
Klebsiella pneumoniae [1] = test: Antibacterial activity against Klebsiella pneumoniae 13b5 incubated for 16 to 24 hrs by broth microdilution method; format: functional; settings: time 16-24 hrs
Staphylococcus aureus = test: Antibacterial activity against methicillin-resistant Staphylococcus aureus infected in BALB/c mouse wound model assessed as decrease in wound diameter at 20 to 80 mg/kg administered topically on days 0, 3 and 6 measured after 12 days; format: functional, organism-based; settings: dose 20-80 mg/kg, route top, time 12.0 day
Klebsiella pneumoniae [2] = test: Bactericidal activity against Klebsiella pneumoniae ATCC 43816; format: functional
J774.A1 = test: Cytotoxicity against mouse J774.A1 cells assessed as cell viability upto 8 ug/ml incubated for 6 hrs by LDH assay; format: toxicity, cell-based; settings: j774.a1, 6 h, dose < 8 µg/ml
Escherichia coli = test: Bactericidal activity against Escherichia coli ATCC ZJ487; format: functional
Listeria monocytogenes = test: Inhibition of biofilm formation in Listeria monocytogenes EGD incubated for 24 hrs by crystal violet staining based analysis; format: functional, organism-based; settings: dose <= 0.13 µg/ml

## CCn1c(=O)c(C(=O)Nc2nnc(-c3ccc(C)cn3)s2)c(O)c2ccccc21
Klebsiella pneumoniae [1]
  MIC: > 512 µg/mL
Staphylococcus aureus
  Activity: Active
Klebsiella pneumoniae [2]
  MBC: > 512 µg/mL
J774.A1
  Activity: Non-toxic
Escherichia coli
  MBC: > 512 µg/mL
Listeria monocytogenes
  inhibition: Dose-dependent-effect
